Paper PMC6345968, “Structural basis for species-selective targeting of Hsp90 in a pathogenic fungus” (Nature Communications, 2019)
In brackets after ≈: the same amount, converted by molar mass. Like-named read-outs stand apart in the source and are kept apart here.

Key:
human Hsp90 [1] = biological target: human Hsp90; design: method as in Owen, B. A. L. et al. J. Biol. Chem. 277, 7086–7091 (2002); conditions: ref Owen, B. A. L. et al. J. Biol. Chem. 277, 7086–7091 (2002); read-out: Kd for ATP; cited from earlier work
C. albicans Hsp90 [2] = biological target: T1, C. albicans Hsp90 (Candida albicans, UniProt P46598); assay: ATPase activity, Michaelis-Menten / Lineweaver-Burk; assay type: biochemical; design: the core ATPase activity of purified full-length homodimers from each species; 6x-His (pRSET-A) (N); made in house; host or cells: E. coli RIL; conditions: γ-32P-labeled ATP
From the text: 1151 Biochemical characterization of C. albicans Hsp90. a, Binding of C. albicans Hsp90 to its
1152 natural ligand ATP. b, Michaelis-Menten plot correlating the rate of ATP hydrolysis by C.
1153 albicans Hsp90 with concentration of substrate. Fractional cleavage of γ-32P-labeled ATP is
1154 plotted against ATP concentration. c, Lineweaver-Burk plot performed to define Km and kcat for
1155 the ATPase activity of C. albicans Hsp90. d, Comparison of parameters determined for C.
1156 albicans Hsp90 with previously published data for homologous human and yeast (S. cerevisiae)

C. albicans Hsp90 [3] = biological target: T1, C. albicans Hsp90; assay: ATP binding by intrinsic tryptophan fluorescence quenching; conditions: read-out: Kd for ATP; purified full-length Hsp90
From the text: tryptophan fluorescence quenching by ligands.
Intrinsic tryptophan fluorescence was
Difference in intrinsic fluorescence of
assuming single-site specific binding.

S. cerevisiae Hsp90 [4] = system: S. cerevisiae Hsp90; design: method as in Owen, B. A. L. et al. J. Biol. Chem. 277, 7086–7091 (2002); conditions: ref Owen, B. A. L. et al. J. Biol. Chem. 277, 7086–7091 (2002); read-out: Km (ATP); cited from earlier work
S. cerevisiae Hsp90 [5] = biological target: S. cerevisiae Hsp90; design: method as in Owen, B. A. L. et al. J. Biol. Chem. 277, 7086–7091 (2002); conditions: ref Owen, B. A. L. et al. J. Biol. Chem. 277, 7086–7091 (2002); read-out: Kd for ATP; cited from earlier work
human Hsp90 [6] = conditions: read-out: Km (ATP); ref Owen, B. A. L. et al. J. Biol. Chem. 277, 7086–7091 (2002); cited from earlier work
[7] = biological target: T2, Hsp90 in C. albicans (SC5314) lysate (Candida albicans, UniProt P46598); assay: biochemical; design: species or system C. albicans SC5314 or HEPG2 lysate; Fluorescence polarization competition, displacement of Cy3B-geldanamycin probe from Hsp90 in whole-cell lysate
T2 construct: endogenous in cells; host or cells: C. albicans SC5314 whole-cell lysate
Protocol: To monitor relative Hsp90-binding affinities, we again used an FP-based competition approach in whole-cell lysates. […] The compounds were prepared using standard conditions with commercially available alkoxyamines varying in size and substitution (Fig. 3c and Supplementary Methods).

[8] = biological target: T2, Hsp90 in C. albicans (SC5314) lysate; assay: biochemical; assay type: binding; conditions: for FP signal: raw
Hsp90 in HEPG2 lysate = conditions: for FP signal: raw
[9] = system: S. cerevisiae expressing C. albicans Hsp90; assay: Broth microdilution growth inhibition (MIC), yeast with C. albicans Hsp90 as sole Hsp90; assay type: cell-based, Saccharomyces cerevisiae
From the text: A critical consideration in the development of an effective antifungal is not just target binding, but also access to the target across microbial cell membranes and cell walls. Therefore, we evaluated the potency and selectivity of oxime analogs using drug susceptibility assays. We used strains of S. cerevisiae where both endogenous genes encoding isoforms of Hsp90 have been disrupted and growth is solely dependent upon C. albicans or human Hsp90 isoforms.
Antifungal tolerance and resistance were determined in flat bottom, 96-well microtiter plates using a modified broth microdilution protocol as described[8],[10]. All Hsp90 inhibitors were formulated in dimethyl sulfoxide (DMSO, Sigma Aldrich Co.); fluconazole was dissolved in sterile ddH2O. Each strain was tested in duplicate on at least two occasions. […] To test for fungicidal activity, cultures from MIC plates were spotted on YPD agar plates using a spotter (Frogger, V&P Scientific, Inc). Plates were photographed after 48 h of incubations at 30 °C.

[10] = system: C. albicans reporter strain CaLC922; assay type: cell-based, Candida albicans; conditions: 6-h exposure
Protocol: In addition to effects on host immune function, we also examined activation of the evolutionarily conserved heat-shock response by CMLD013075.
Activation of the response in C. albicans was also measured in 96-well format using a reporter strain (CaLC922) engineered with HSP70 promoter elements driving expression of the LacZ gene from Streptococcus thermophilus integrated at the HSP70 locus with the URA3 marker for selection. […]

[11] = SC5314 lysate, 1.372 nM compound
[12] = SC5314 lysate, 4.115 nM compound
[13] = SC5314 lysate, 12.346 nM compound
[14] = SC5314 lysate, 37.037 nM compound
[15] = SC5314 lysate, 111.111 nM compound
[16] = SC5314 lysate, 333.333 nM compound
[17] = SC5314 lysate, 1000 nM compound
[18] = SC5314 lysate, 3000 nM compound

T2 sequence (P46598 whole entry): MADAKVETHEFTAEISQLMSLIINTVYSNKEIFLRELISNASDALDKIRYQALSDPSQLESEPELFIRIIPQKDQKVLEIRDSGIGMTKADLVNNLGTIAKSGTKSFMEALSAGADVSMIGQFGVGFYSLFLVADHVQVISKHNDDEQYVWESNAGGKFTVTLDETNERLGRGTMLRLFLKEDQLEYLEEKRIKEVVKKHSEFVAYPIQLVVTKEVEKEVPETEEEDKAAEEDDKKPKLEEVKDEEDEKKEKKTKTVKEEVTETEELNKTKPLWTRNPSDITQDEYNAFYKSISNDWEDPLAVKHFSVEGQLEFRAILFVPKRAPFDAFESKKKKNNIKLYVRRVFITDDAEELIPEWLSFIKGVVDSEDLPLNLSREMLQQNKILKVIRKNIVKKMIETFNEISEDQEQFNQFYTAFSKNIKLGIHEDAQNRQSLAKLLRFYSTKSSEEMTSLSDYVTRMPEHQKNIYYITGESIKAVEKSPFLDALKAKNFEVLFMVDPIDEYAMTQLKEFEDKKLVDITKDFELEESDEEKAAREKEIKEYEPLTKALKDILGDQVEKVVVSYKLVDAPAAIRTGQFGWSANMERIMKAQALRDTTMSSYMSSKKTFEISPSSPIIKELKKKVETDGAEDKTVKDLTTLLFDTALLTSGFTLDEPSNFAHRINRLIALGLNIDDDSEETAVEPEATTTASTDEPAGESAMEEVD
T1 sequence (P46598 whole entry): as above

## Nc1ncnc2c1ncn2[C@@H]1O[C@H](COP(=O)(O)OP(=O)(O)OP(=O)(O)O)[C@@H](O)[C@H]1O [ATP]
Human Hsp90 [1]
  Kd: 240000 nM
C. albicans Hsp90 [2]
  Km: 533 µM
C. albicans Hsp90 [3]
  Kd: 125000 nM
S. cerevisiae Hsp90 [4]
  Km: 511 µM
S. cerevisiae Hsp90 [5]
  Kd: 132000 nM
Human Hsp90 [6]
  Km: 324 µM

## Cc1ccc(CON=C2/C=C/C=C\[C@H]3O[C@H]3C[C@@H](C)OC(=O)c3c(O)cc(O)c(Cl)c3C2)cc1 [compound 3, (1aR,2Z,4E,14R,15aS)-8-chloro-9,11-dihydroxy-14-methyl-6-(((4-methylbenzyl)oxy)imino)-1a,6,7,14,15,15a-hexahydro-12H-benzo[c]oxireno[2,3-k][1]oxacyclotetradecin-12-one]
[7]
  EC50: 972 nM

## C[C@@H]1C[C@@H]2O[C@@H]2/C=C\C=C\C(=NOCc2ccccc2Cl)Cc2c(Cl)c(O)cc(O)c2C(=O)O1 [compound 4]
[8]; C. albicans SC5314 vs HEPG2 lysate, FP
  normalized fungal selectivity in lysates: 2.9 fold
[8]; EC50, SC5314 lysate, not normalized, oxime panel experiment 220817
  EC50: 531 nM
[8]; EC50 relative to GdA, SC5314 lysate
  Ratio re. GdA: 31.1993
[8]; SC5314 lysate, 0.457 nM compound
  FP signal relative to 0 nM: 0.9904
[8]; SC5314 lysate, 1.372 nM
  FP signal (raw): 208
[8]; [11]
  FP signal relative to 0 nM: 1
  FP signal: 208
[8]; SC5314 lysate, 4.115 nM
  FP signal (raw): 207
[8]; [12]
  FP signal relative to 0 nM: 0.9952
  FP signal: 207
[8]; SC5314 lysate, 12.346 nM
  FP signal (raw): 202
[8]; [13]
  FP signal relative to 0 nM: 0.9712
  FP signal: 202
[8]; SC5314 lysate, 37.037 nM
  FP signal (raw): 199
[8]; [14]
  FP signal relative to 0 nM: 0.9567
  FP signal: 199
[8]; SC5314 lysate, 111.111 nM
  FP signal (raw): 186
[8]; [15]
  FP signal relative to 0 nM: 0.8942
  FP signal: 186
[8]; SC5314 lysate, 333.333 nM
  FP signal (raw): 145
[8]; [16]
  FP signal relative to 0 nM: 0.6971
  FP signal: 145
[8]; SC5314 lysate, 1000 nM
  FP signal (raw): 75
[8]; [17]
  FP signal relative to 0 nM: 0.3606
  FP signal: 75
[8]; SC5314 lysate, 3000 nM
  FP signal (raw): 39
[8]; [18]
  FP signal relative to 0 nM: 0.1875
  FP signal: 39
[8]; ratio of GdA-normalized EC50s, human over fungal lysate
  HepG2/SC5314: 2.89
[8]; ratio of GdA-relative EC50 ratios, HepG2 over SC5314
  HepG2/SC5314: 2.89
Hsp90 in HEPG2 lysate; EC50 / EC50 of GdA in HepG2 lysate
  Ratio rel. GdA (HepG2): 90.1713
Hsp90 in HEPG2 lysate; EC50 relative to GdA, HEPG2 lysate
  Ratio rel. GdA (HepG2): 90.1713
Hsp90 in HEPG2 lysate; HEPG2 lysate, log concentration 0.137354 (1.372 nM)
  FP signal, Fxn Control: 1.0099
Hsp90 in HEPG2 lysate; HEPG2 lysate, log concentration 0.61437 (4.115 nM)
  FP signal, Fxn Control: 1.0198
Hsp90 in HEPG2 lysate; HEPG2 lysate, log concentration 1.09153 (12.346 nM)
  FP signal, Fxn Control: 1.0099
Hsp90 in HEPG2 lysate; HEPG2 lysate, log concentration 1.56864 (37.037 nM)
  FP signal, Fxn Control: 1.0099
Hsp90 in HEPG2 lysate; HEPG2 lysate, log concentration 2.04576 (111.111 nM)
  FP signal, Fxn Control: 0.9901
Hsp90 in HEPG2 lysate; HEPG2 lysate, log concentration 2.52288 (333.333 nM)
  FP signal, Fxn Control: 0.9158
Hsp90 in HEPG2 lysate; HEPG2 lysate, log concentration 3 (1000 nM)
  FP signal, Fxn Control: 0.6881
Hsp90 in HEPG2 lysate; HEPG2 lysate, log concentration 3.47712 (3000 nM)
  FP signal, Fxn Control: 0.2178
Hsp90 in HEPG2 lysate; HEPG2 lysate, log concentration -0.340084 (0.457 nM)
  FP signal, Fxn Control: 1.0099
Hsp90 in HEPG2 lysate; HepG2 lysate, 0.457 nM
  FP signal (raw): 204
Hsp90 in HEPG2 lysate; HepG2 lysate, 0.457 nM compound
  FP signal: 204
Hsp90 in HEPG2 lysate; HepG2 lysate, 1.372 nM
  FP signal (raw): 204
Hsp90 in HEPG2 lysate; HepG2 lysate, 1.372 nM compound
  FP signal: 204
Hsp90 in HEPG2 lysate; HepG2 lysate, 4.115 nM
  FP signal (raw): 206
Hsp90 in HEPG2 lysate; HepG2 lysate, 4.115 nM compound
  FP signal: 206
Hsp90 in HEPG2 lysate; HepG2 lysate, 12.346 nM
  FP signal (raw): 204
Hsp90 in HEPG2 lysate; HepG2 lysate, 12.346 nM compound
  FP signal: 204
Hsp90 in HEPG2 lysate; HepG2 lysate, 37.037 nM
  FP signal (raw): 204
Hsp90 in HEPG2 lysate; HepG2 lysate, 37.037 nM compound
  FP signal: 204
Hsp90 in HEPG2 lysate; HepG2 lysate, 111.111 nM
  FP signal (raw): 200
Hsp90 in HEPG2 lysate; HepG2 lysate, 111.111 nM compound
  FP signal: 200
Hsp90 in HEPG2 lysate; HepG2 lysate, 333.333 nM
  FP signal (raw): 185
Hsp90 in HEPG2 lysate; HepG2 lysate, 333.333 nM compound
  FP signal: 185
Hsp90 in HEPG2 lysate; HepG2 lysate, 1000 nM
  FP signal (raw): 139
Hsp90 in HEPG2 lysate; HepG2 lysate, 1000 nM compound
  FP signal: 139
Hsp90 in HEPG2 lysate; HepG2 lysate, 3000 nM
  FP signal (raw): 44
Hsp90 in HEPG2 lysate; HepG2 lysate, 3000 nM compound
  FP signal: 44
Hsp90 in HEPG2 lysate; HepG2 lysate, oxime panel experiment 220817
  EC50: 2000 nM
[9]
  MIC: 2.6 µM (≈ 1.31 µg/mL)

## COc1ccc(CON=C2/C=C/C=C\[C@H]3O[C@H]3C[C@@H](C)OC(=O)c3c(O)cc(O)c(Cl)c3C2)cc1 [compound 5, (1aR,2Z,4E,14R,15aS)-8-chloro-9,11-dihydroxy-6-(((4-methoxybenzyl)oxy)imino)-14-methyl-1a,6,7,14,15,15a-hexahydro-12H-benzo[c]oxireno[2,3-k][1]oxacyclotetradecin-12-one]
[7]
  EC50: 1350 nM

## C[C@@H]1C[C@@H]2O[C@@H]2/C=C\C=C\C(=NOCc2cccc(F)c2)Cc2c(Cl)c(O)cc(O)c2C(=O)O1 [compound 6, (1aR,2Z,4E,14R,15aS)-8-chloro-6-(((3-fluorobenzyl)oxy)imino)-9,11-dihydroxy-14-methyl-1a,6,7,14,15,15a-hexahydro-12H-benzo[c]oxireno[2,3-k][1]oxacyclotetradecin-12-one]
[7]
  EC50: 417 nM

## COc1ccccc1CON=C1/C=C/C=C\[C@H]2O[C@H]2C[C@@H](C)OC(=O)c2c(O)cc(O)c(Cl)c2C1 [compound 7, (1aR,2Z,4E,14R,15aS)-8-chloro-9,11-dihydroxy-6-(((2-methoxybenzyl)oxy)imino)-14-methyl-1a,6,7,14,15,15a-hexahydro-12H-benzo[c]oxireno[2,3-k][1]oxacyclotetradecin-12-one]
[7]
  EC50: 360 nM

## CCON=C1/C=C/C=C\[C@H]2O[C@H]2C[C@@H](C)OC(=O)c2c(O)cc(O)c(Cl)c2C1 [compound 8, (1aR,2Z,4E,14R,15aS)-8-chloro-6-(ethoxyimino)-9,11-dihydroxy-14-methyl-1a,6,7,14,15,15a-hexahydro-12H-benzo[c]oxireno[2,3-k][1]oxacyclotetradecin-12-one]
[7]
  EC50: 5 nM

## CC(C)c1cc(-c2n[nH]c(=O)n2-c2ccc3c(ccn3C)c2)c(O)cc1O [ganetespib, reference compound]
293T reporter cells
  heat-shock reporter activation: concentration-dependent reporter activation
[10]
  heat-shock reporter activation: neither ganetespib nor radicicol induced the reporter to a measurable extent
